{"source": "patent US20030175234A1", "about": "“Use of polyphenols to treat skin conditions” (priority 2002, published 2003)", "origin": "cited, not measured here", "key": {"[1]": {"tested_on": "Ultraviolet-B (UV-B) light ray induced leukocyte infiltration", "conditions": "mouse skin"}, "[2]": {"tested_on": "Ultraviolet-B (UV-B) light ray induced leukocyte infiltration", "conditions": "human skin"}}, "note": "Where two headings read alike, the source gives them in different places.", "data": [{"smiles": "O=C(O[C@@H]1Cc2c(O)cc(O)cc2O[C@@H]1c1cc(O)c(O)c(O)c1)c1cc(O)c(O)c(O)c1", "note": "[epigallocatechin gallate]", "values": [{"measurement": "block of UV-B induced leukocyte infiltration", "setting": "[1]", "result": "can block"}, {"measurement": "block of UV-B induced leukocyte infiltration", "setting": "[2]", "result": "can block"}]}]}
